Results: US7186730B2, “Bicyclic nitrogen-containing heterocyclic derivatives for use as antibacterials” (priority 2001, dated 2007)
Structures can show the parent of a compound that is named as a salt.

Experiment: MIC of test compounds against various organisms
Assay type: cell-based
Conditions: not given
Method: The MIC (μg/ml) of test compounds against various organisms was determined: S. aureus Oxford, S. aureus WCUH29, S. pneumoniae 1629, S. pneumoniae N1387, S. pneumoniae ERY 2, E. faecalis I, E. faecalis 7,H. influenzaeQ1, H. influenzae NEMC1, M. catarrhalis 1502.

SMILES | MIC
COc1ccc2nccc(NC(=O)C3CCN(CC(O)c4cnc5c(c4)NC(=O)CS5)CC3)c2n1 (stereo not drawn) [Example 15, R and S-1-[2-Hydroxy-2-(2-oxo-2,3-dihydro-1H-pyrido[2,3-b][1,4]thiazin-7-yl)-ethyl]-piperidine-4-carboxylic acid (6-methoxy-[1,5]naphthyridin-4-yl)-amide hydrochloride] | ≤ 4 µg/mL
COc1ccc2nccc(NC(=O)C3CCN(CCc4cc5c(cn4)OCCO5)CC3)c2n1 [Example 16, 1-[2-(2,3-Dihydro-[1,4]dioxino[2,3-c]pyridin-7-yl)-ethyl]-piperidine-4-carboxylic acid (6-methoxy-[1,5]naphthyridin-4-yl)-amide hydrochloride] | ≤ 4 µg/mL
COc1ccc2nccc(OCC3CCN(CCc4ccc5c(c4)OCCO5)CC3)c2n1 [Example 21, 8-{1-[2-(2,3-Dihydro-benzo[1,4]dioxin-6-yl)-ethyl]-piperidin-4-ylmethoxy}-2-methoxy-[1,5]naphthyridine hydrochloride] | ≤ 64 µg/mL

Same assay, conditions: versus all these organisms (10-strain panel); read-out: MIC

SMILES | MIC
COc1ccc2nccc(NC(=O)C3CCN(CCc4ccc5c(c4)NC(=O)CS5)CC3)c2n1 [Example 1, 1-[2-(3-Oxo-3,4-dihydro-2H-benzo[1,4]thiazin-6-yl)-ethyl]-piperidine-4-carboxylic acid (6methoxy-[1,5]naphthyridinylaramide oxalate] | ≤ 4 µg/mL
COc1ccc2nccc(NC(=O)C3CCN(CCc4ccc5nsnc5c4)CC3)c2n1 [Example 5, 1-(2-Benzo[1,2,5]thiadiazol-5-yl-ethyl)-piperidine-4-carboxylic acid (6-methoxy-[1,5]naphthyridin-4-yl)-amide, dioxalate] | ≤ 64 µg/mL
COc1ccc2nccc(NC(=O)C3CCN(CCc4ccc5c(c4)oc(=O)n5C)CC3)c2n1 [Example 6, 1-[2-(3-Methyl-2-oxo-2,3-dihydro-benzooxazol-6-yl)-ethyl]-piperidine-4-carboxylic acid (6-methoxy-[1,5]naphthyridin-4-yl)-amide, dioxalate] | ≤ 64 µg/mL
COc1ccc2nccc(NC(=O)C3CCN(CCc4cnc5ccccc5n4)CC3)c2n1 [Example 9, 1-(2-Quinoxalin-2-yl-ethyl)piperidine-4-carboxylic acid (6-methoxy-[1,5]naphthyridin-4-yl)-amide] | ≤ 64 µg/mL
COc1ccc2nccc(NC(=O)C3CCN(CC(=O)c4ccc5c(c4)NC(=O)CS5)CC3)c2n1 [Example 11, 1-[2-Oxo-2-(3-oxo-3,4dihydro-2H-benzo[1,4]thiazin-6-yl)-ethyl]-piperidine-4-carboxylic acid (6-methoxy-[1,5]naphthyridin-4-yl)-amide oxalate] | ≤ 64 µg/mL
COc1ccc2nccc(NC(=O)C3CCN(CC(O)c4ccc5c(c4)NC(=O)CS5)CC3)c2n1 (stereo not drawn) [Example 12, R,S-1-[2-Hydroxy-2-(3-oxo-3,4-dihydro-2H-benzo[1,4]thiazin-6-yl)-ethyl]-piperidine-4-carboxylic acid (6methoxy-[1,5]naphthyridin-4-yl)-amide oxalate] | ≤ 4 µg/mL
COc1ccc2nccc(NC(=O)C3CCN(CC(=O)c4ccc5c(c4)OCCO5)CC3)c2n1 [Example 14, 1-[2-(2,3-Dihydro-benzo[1,4]dioxin-6-yl)-2-oxo-ethyl]-piperidine-4-carboxylic acid (6methoxy-[1,5]naphthyridin-4-yl)-amide oxalate] | ≤ 16 µg/mL
COc1ccc2nccc(NC(=O)C3CCN(CC(O)c4ccc5c(c4)OCCO5)CC3)c2n1 (stereo not drawn) [Example 18, R,S-1-[2-(2,3-Dihydro-benzo[1,4]dioxin-6-yl)-2-hydroxy-ethyl]-piperidine-4-carboxylic acid (6-methoxy-[1,5]naphthyridin-4-yl)-amide oxalate] | ≤ 4 µg/mL

Second part, the compound after the results:

MIC | SMILES
≤ 4 µg/mL | COc1ccc2nccc(NC(=O)C3CCN(CCc4ccc5c(c4)OCO5)CC3)c2n1 [Example 2, 1-(2-Benzo[1,3]dioxol-5yl-ethyl)-piperidine4-carboxylic acid (6-methoxy-[1,5]naphthyridin-4-yl)amide, dioxalate]
≤ 4 µg/mL | COc1ccc2nccc(NC(=O)C3CCN(CCc4ccc5c(c4)OCCO5)CC3)c2n1 [Example 3, 1-[2-(2,3-Dihydro-benzo[1,4]dioxin-6-yl)-ethyl]-piperidine-4-carboxylic acid (6-methoxy-[1,5]naphthyridin-4-yl)-amide, dioxalate]
≤ 4 µg/mL | COc1ccc2nccc(NC(=O)C3CCN(CCc4nc5c(F)cccc5[nH]4)CC3)c2n1 [Example 4, 1-[2-(4-Fluoro-1H-benzoimidazol-2-yl)-ethyl]-piperidine-4-carboxylic acid (6-methoxy-[1,5]naphthyridin-4-yl)-amide, dioxalate]
≤ 16 µg/mL | COc1ccc2nccc(NC(=O)C3CCN(CCc4ccc5c(c4)NC(=O)CO5)CC3)c2n1 [Example 7, 1-[2-(3-Oxo-3,4-dihydro-2H-benzo-[1,4]oxazin-6-yl)ethyl]-piperidine-4-carboxylic acid (6-methoxy-[1,5]naphthyridin-4-yl)-amide, dioxalate]
≤ 4 µg/mL | COc1ccc2nccc(NC(=O)C3CCN(CC(=O)c4ccc5c(c4)NC(=O)CO5)CC3)c2n1.O=C(O)C(=O)O [Example 13, 1-[2-Oxo-2-(3-oxo-3,4-dihydro-2H-benzo[1,4]oxazin-6-yl)ethyl]-piperidine-4-carboxylic acid (6-methoxy-[1,5]naphthyridin-4-yl)-amide oxalate]
≤ 16 µg/mL | COc1ccc2nccc(OCC3CCN(CC(O)c4ccc5c(c4)NC(=O)CS5)CC3)c2n1 (stereo not drawn) [Example 17, R,S-6-{1-Hydroxy-2-[4-(6methoxy-[1,5]naphthyridin-4-yloxymethyl)-piperidin-1-yl]-ethyl}-4H-benzo[1,4]thiazin-3-one hydrochloride]
≤ 16 µg/mL | COc1ccc2nccc(NC(=O)C3CCN(CC(O)c4ccc5c(c4)NC(=O)CO5)CC3)c2n1 (stereo not drawn) [Example 19, R,S-1-[2-Hydroxy-2-(3-oxo-3,4-dihydro-2H-benzo[1,4]oxazin-6-yl)-ethyl]-piperidine-4-carboxylic acid (6-methoxy-[1,5]naphthyridin-4-yl)-amide oxalate]
